Laboratory results as given in ChEMBL document CHEMBL5321216, “Discovery of bipyridine amide derivatives targeting pRXRα-PLK1 interaction for anticancer therapy” (Eur J Med Chem, 2023).
Active and inactive are the calls of the source. The calls are words filed in the database; no cut-off is given here.

How the values were obtained:
[1] = target: T1, Retinoic acid receptor RXR-gamma (Homo sapiens) (UniProt P48443); assay: Antagonist activity at RXRgamma (unknown origin) transfected in human HeLa cells at 31.25 uM incubated for 24 hrs by dual luciferase reporter assay; assay type: cell-based
T1 sequence (whole entry): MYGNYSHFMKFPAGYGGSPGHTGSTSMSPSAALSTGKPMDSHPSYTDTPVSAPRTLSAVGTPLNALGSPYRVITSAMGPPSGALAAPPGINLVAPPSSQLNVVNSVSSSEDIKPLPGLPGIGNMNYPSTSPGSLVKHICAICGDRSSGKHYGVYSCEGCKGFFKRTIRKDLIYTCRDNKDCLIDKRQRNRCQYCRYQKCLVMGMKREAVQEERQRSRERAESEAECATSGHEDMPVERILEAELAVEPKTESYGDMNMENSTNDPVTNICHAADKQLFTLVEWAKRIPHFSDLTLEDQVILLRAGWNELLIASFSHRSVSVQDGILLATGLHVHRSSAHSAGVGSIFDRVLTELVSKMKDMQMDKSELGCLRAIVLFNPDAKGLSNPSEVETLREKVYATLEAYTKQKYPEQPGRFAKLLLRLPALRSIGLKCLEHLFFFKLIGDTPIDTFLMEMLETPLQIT

A549 = assay: Induction of cell cycle arrest in human A549 cells assessed as accumulation of cells at G1 phase at 62.5 nM incubated for 12 hrs by flow cytometry analysis (reference value: 59.57%); assay type: functional
MDA-MB-231 [2] = assay: Induction of cell cycle arrest in human MDA-MB-231 cells assessed as accumulation of cells at G1 phase at 62.5 nM incubated for 12 hrs by flow cytometry analysis (reference value: 43.2%); assay type: functional
MDA-MB-231 [3] = assay: Induction of cell cycle arrest in human MDA-MB-231 cells assessed as accumulation of cells at G2 phase at 31.25 nM incubated for 12 hrs by flow cytometry analysis (reference value: 15.91%); assay type: functional
MDA-MB-231 [4] = assay: Induction of mitotic arrest in human MDA-MB-231 cells assessed as disordered spindle formation at 62.5 nM incubated for 12 hrs by alpha-tubulin/DAPI staining based confocal microscopic analysis; assay type: functional, cell-based
MDA-MB-231 [5] = assay: Induction of cell cycle arrest in human MDA-MB-231 cells assessed as accumulation of cells at G2 phase at 15.625 nM incubated for 12 hrs by flow cytometry analysis (reference value: 15.91%); assay type: functional; conditions: 0.01562 µM
MDA-MB-231 [6] = assay: Induction of apoptosis in human MDA-MB-231 cells assessed as increase in cleaved PARP expression at 125 nM by Western blot analysis; assay type: functional, cell-based; conditions: time 1-24 hrs, TDE = time-dependent effect

Structure (SMILES): O=C(/C=C/c1ccccc1)Nc1cc(-c2ccnc(N3CCC(CO)CC3)c2)ccn1
- Activity [1]: inactive
- Activity (A549): 59.43%
- Activity (MDA-MB-231 [2]): 1.81%
- Activity (MDA-MB-231 [3]): 27.02%
- Activity (MDA-MB-231 [4]): Active
- Activity (MDA-MB-231 [5]): 15.75%
- Activity (MDA-MB-231 [6]): Tde
